Assay results taken from patent publication US20220363665A1, “QUINOLINE COMPOUNDS FOR THE TREATMENT OF AUTOIMMUNE DISEASE” (Hoffmann-La Roche Inc., priority 2019, published 2022).

How the values were obtained:
human TLR9 = target: T1, human TLR9 (Homo sapiens, UniProt Q9NR96); experiment: HEK293-Blue-hTLR-9 cells assay (SEAP reporter, ODN2006 stimulation); format: cell-based; settings: HEK293-Blue-hTLR9 cells, ODN2006, 20 hrs
T1 construct: host or cells: HEK293 (HEK-Blue hTLR9)
T1 sequence (Q9NR96 26-1032): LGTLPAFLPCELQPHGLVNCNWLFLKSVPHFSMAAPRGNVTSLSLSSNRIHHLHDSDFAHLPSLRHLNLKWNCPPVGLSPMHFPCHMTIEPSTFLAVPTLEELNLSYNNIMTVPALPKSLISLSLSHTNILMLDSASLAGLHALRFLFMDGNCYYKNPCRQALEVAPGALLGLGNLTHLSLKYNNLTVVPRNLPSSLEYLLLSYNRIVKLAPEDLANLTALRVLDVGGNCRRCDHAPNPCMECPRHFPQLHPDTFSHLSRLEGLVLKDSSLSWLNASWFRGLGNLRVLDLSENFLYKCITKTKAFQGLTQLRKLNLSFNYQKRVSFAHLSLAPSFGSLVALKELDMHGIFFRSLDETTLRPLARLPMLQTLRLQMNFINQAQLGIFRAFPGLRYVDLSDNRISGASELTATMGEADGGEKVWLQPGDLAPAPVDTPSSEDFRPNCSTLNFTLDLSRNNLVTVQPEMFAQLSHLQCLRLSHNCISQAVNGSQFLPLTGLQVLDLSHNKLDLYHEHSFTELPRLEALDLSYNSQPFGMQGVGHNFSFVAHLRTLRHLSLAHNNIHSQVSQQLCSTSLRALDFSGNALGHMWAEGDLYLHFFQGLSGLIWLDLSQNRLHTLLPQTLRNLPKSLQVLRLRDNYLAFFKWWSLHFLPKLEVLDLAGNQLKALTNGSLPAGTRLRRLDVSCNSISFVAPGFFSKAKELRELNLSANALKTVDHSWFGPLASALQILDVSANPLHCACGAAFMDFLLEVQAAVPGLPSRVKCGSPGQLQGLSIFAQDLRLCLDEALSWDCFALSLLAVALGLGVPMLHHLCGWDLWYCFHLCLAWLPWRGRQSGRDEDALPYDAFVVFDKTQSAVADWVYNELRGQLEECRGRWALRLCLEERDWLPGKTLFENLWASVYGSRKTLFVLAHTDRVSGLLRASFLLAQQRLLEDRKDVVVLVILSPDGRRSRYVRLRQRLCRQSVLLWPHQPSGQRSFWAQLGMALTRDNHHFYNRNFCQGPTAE
Protocol: The following tests were carried out in order to determine the activity of the compounds of formula (I) in HEK293-Blue-hTLR-7/8/9 cells assay.
HEK293-Blue-hTLR-9 Cells Assay:
A stable HEK293-Blue-hTLR-9 cell line was purchased from InvivoGen (Cat. #. hkb-htlr9, San Diego, Calif., USA). These cells were originally designed for studying the stimulation of human TLR9 by monitoring the activation of NF-κB. A SEAP (secreted embryonic alkaline phosphatase) reporter gene was placed under the control of the […] minimal promoter fused to five NF-κB and AP-1-binding sites. The SEAP was induced by activating NF-κB and AP-1 via stimulating HEK-Blue hTLR9 cells with TLR9 ligands. Therefore the reporter expression was declined by TLR9 antagonist under the stimulation of a ligand, such as ODN2006 (Cat. #: tlrl-2006-1, Invivogen, San Diego, Calif., USA), for incubation of 20 hrs. The cell culture supernatant SEAP reporter activity was determined using QUANTI-Blue™ kit (Cat. #: rep-qbl, Invivogen, San Diego, Calif., USA) at a wavelength of 640 nm, a detection medium that turns purple or blue in the presence of alkaline phosphatase.
HEK293-Blue-hTLR9 cells were incubated at a density of […] cells/mL in a volume of 170 μL, in a 96-well plate in Dulbecco's Modified Eagle's medium (DMEM) containing 4.5 g/L glucose, 50 U/mL penicillin, […], […], 2 mM L-glutamine, 10% (v/v) heat-inactivated fetal bovine serum with addition of 20 μL test compound in a serial dilution in the presence of final DMSO at 1% and 10 μL of 20 uM ODN2006 in above DMEM, perform incubation under 37° C. in a CO2 incubator for 20 hrs. Then 20 μL of the supernatant from each well was incubated with 180 μL Quanti-blue substrate solution at 37° C. for 2 hrs and the absorbance was read at 620˜655 nm using a spectrophotometer. The signalling pathway that TLR9 activation leads to downstream NF-κB activation has been widely accepted, and therefore similar reporter assay was modified for evaluating TLR9 antagonist.

CYP2C9 = target: T2, CYP2C9 (Homo sapiens, UniProt P11712); experiment: CYP inhibition assay in human liver microsome, CYP2C9; format: in vitro ADME; settings: HLM, diclofenac substrate; for inhibition at 5 min, 10 µM: human, liver microsomes, probe diclofenac, read-out: CYP inhibition % @10 uM (2C9)
T2 construct: tissue BD-Gentest 452117; host or cells: human liver microsomes
T2 sequence (P11712 whole entry): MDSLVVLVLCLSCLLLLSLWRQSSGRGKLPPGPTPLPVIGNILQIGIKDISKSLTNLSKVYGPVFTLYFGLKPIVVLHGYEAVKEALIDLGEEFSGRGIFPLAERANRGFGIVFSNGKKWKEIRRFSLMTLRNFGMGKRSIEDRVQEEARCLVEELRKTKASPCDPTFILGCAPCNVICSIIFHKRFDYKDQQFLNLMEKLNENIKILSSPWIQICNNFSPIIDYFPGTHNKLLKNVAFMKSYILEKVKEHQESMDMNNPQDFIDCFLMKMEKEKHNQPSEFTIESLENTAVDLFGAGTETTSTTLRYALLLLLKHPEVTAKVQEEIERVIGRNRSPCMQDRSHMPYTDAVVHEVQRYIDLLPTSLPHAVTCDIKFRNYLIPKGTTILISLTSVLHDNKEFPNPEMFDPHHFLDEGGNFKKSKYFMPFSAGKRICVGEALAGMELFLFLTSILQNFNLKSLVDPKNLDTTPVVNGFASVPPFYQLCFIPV
Protocol: This is a high throughput screening assay used for assessment of reversible inhibition of CYP2C9, CYP2D6, and CYP3A4 activity of test compounds in human liver microsome (HLM) in early discovery stage.
10 mM DMSO stock solutions of test compounds were diluted in DMSO to generate 2 mM intermediate stock solution. 250 nL of intermediate stock solution were transferred in duplicate into 3 separate 384 well microtitre plates (assay-ready plates). A mixture of HLM and each substrate was made up. 45 μL of HLM substrate mix was then transferred to each well of an assay ready plate and mixed. The negative (solvent) and positive controls (standard inhibitor for each CYP) were included in each assay ready plate. The assay ready plate was warmed to 37° C. in an incubator over 10 minutes. 5 μL pre-warmed NADPH regenerating system was added to each incubation well to start the reaction. Final incubation volume was 50 μL. The assay plate then was placed back in the 37° C. incubator. After 5 minutes incubation (10 minutes for CYP2D6), incubates were quenched by addition of 50 μL quench reagent containing internal standards (400 ng/mL 13C6-4′-OH-Diclofenac, 20 ng/mL D3-Dextrorphan and 20 ng/mL D4-1′OH-Midazolam in acetonitrile). The supernatants were collected for RapidFire/MS/MS analysis.
RapidFire online solid phase extraction/sample injection system (Agilent) coupled with API4000 triple quadrupole mass spectrometer (AB Sciex) were used for sample analysis. The mobile phase composed of acetonitrile and water supplemented with 0.1% formic acid. A C4 solid phase extraction cartridge is used for sample separation. MS detection is achieved in positive ion MRM mode.
Peak areas for substrate, metabolite and internal standard are determined using the
RapidFire integrator software (version 3.6.12009.12296). Peak area ratios (PAR) of metabolite and internal standard (stable-labelled metabolite) are then calculated. The measurement window for each experiment is then defined:
PAR (0% activity)=average PAR for all incubations containing concentrated inhibitor;
Par (100% activity)=average PAR for all incubations containing no inhibitor (DMSO controls);
% Activity (test inhibitor) =[PAR(test inhibitor)-PAR(0% activity)][PAR(100% activity)-PAR(0% activity)];
% Inhibition (test inhibitor)=100-% Activity (test inhibitor).
Percentage inhibition data are then reported, in duplicate, for the 3 CYP enzymes.

Row | IC50 (human TLR9) [µM] | inhibition at 5 min, 10 µM (CYP2C9) [%] | CYP inhibition % @10 uM (2C9) (CYP2C9) [%] | Structure (SMILES)
1 | 10.6 | -4 |  | C[C@@H]1CN(c2ccc(Br)c3ncccc23)C[C@H](C(=O)NC2CCN(C)CC2)O1 [Example 42, (2R,6R)-4-(8-bromo-5-quinolyl)-6-methyl-N-(1-methyl-4-piperidyl)morpholine-2-carboxamide]
2 | 39.9 | -8 |  | Cc1ccc(N2C[C@@H](C)O[C@@H](C(=O)NC3CCN(C)CC3)C2)c2cccnc12 [Example 16, (2R,6R)-6-methyl-N-(1-methyl-4-piperidyl)-4-(8-methyl-5-quinolyl)morpholine-2-carboxamide]
3 | 12.4 | 26 |  | C[C@@H]1CN(c2ccc(Cl)c3ncccc23)C[C@H](C(=O)NC2CCCNCC2)O1 (stereo partly drawn) [Example 25, (2R,6R)-N-(azepan-4-yl)-4-(8-chloro-5-quinolyl)-6-methyl-morpholine-2-carboxamide]
4 | > 100 | -4 |  | C[C@@H]1CN(c2ccc(C(F)(F)F)c3ncccc23)C[C@H](C(=O)NCC2COCCN2C)O1 (stereo partly drawn) [Example 11, (2R,6R)-6-methyl-N-[(4-methylmorpholin-3-yl)methyl]-4-[8-(trifluoromethyl)-5-quinolyl]morpholine-2-carboxamide]
5 | > 100 | 1 |  | C[C@@H]1CN(c2ccc(C(F)(F)F)c3ncccc23)C[C@H](C(=O)NCCN2CCOCC2)O1 [Example 13, (2R,6R)-6-methyl-N-(2-morpholinoethyl)-4-[8-(trifluoromethyl)-5-quinolyl]morpholine-2-carboxamide]
6 | 6 | -3 |  | C[C@@H]1CN(c2ccc(I)c3ncccc23)C[C@H](C(=O)NC2CCN(C)CC2)O1 [Example 38, (2R,6R)-4-(8-iodo-5-quinolyl)-6-methyl-N-(1-methyl-4-piperidyl)morpholine-2-carboxamide]
7 | 23.7 | -20 |  | C[C@@H]1CN(c2ccc(Cl)c3ncccc23)C[C@H](C(=O)NC2CCN(C)CC2)O1 [Example 24, (2R,6R)-4-(8-chloro-5-quinolyI)-6-methyl-N-(1-methyl-4-piperidyl)morpholine-2-carboxamide]
8 | 29.4 | -2 |  | C[C@@H]1CN(c2ccc(C(F)(F)F)c3ncccc23)C[C@H](C(=O)NC2CNCCOC2)O1 (stereo partly drawn) [Example 14, (2R,6R)-6-methyl-N-(1,4-oxazepan-6-yl)-4-[8-(trifluoromethyl)-5-quinolyl]morpholine-2-carboxamide]

Continued, compound first:

Row | Structure (SMILES) | IC50 (human TLR9) [µM] | inhibition at 5 min, 10 µM (CYP2C9) [%] | CYP inhibition % @10 uM (2C9) (CYP2C9) [%]
9 | C[C@@H]1CN(c2ccc(C(F)(F)F)c3ncccc23)C[C@H](C(=O)NC2C3CCC2CNC3)O1 (stereo partly drawn) [Example 31, (2R,6R)-N-(3-azabicyclo[3.2.1]octan-8-yl)-6-methyl-4-[8-(trifluoromethyl)-5-quinolyl]morpholine-2-carboxamide] | 9.2 | -1 | 
10 | C[C@@H]1CN(c2ccc(C(F)(F)F)c3ncccc23)C[C@H](C(=O)N2CCC3(CCNCC3)CC2)O1 [Example 32, 3,9-diazaspiro[5.5]undecan-3-yl-[(2R,6R)-6-methyl-4-[8-(trifluoromethyl)-5-quinolyl]morpholin-2-yl]methanone] | 3.7 | -8 | 
11 | CC(NC(=O)[C@H]1CN(c2ccc(C(F)(F)F)c3ncccc23)C[C@@H](C)O1)C1CN(C)CCO1 (single isomer, unassigned) [Example 35A] | 42.7 | 10 | 
12 | C[C@@H]1CN(c2ccc(C(F)(F)F)c3ncccc23)C[C@H](C(=O)N[C@@H]2CNC[C@@H]2F)O1 (single isomer, unassigned) [Example 2A] | 41 | 26 | 
13 | C[C@@H]1CN(c2ccc(C(F)(F)F)c3ncccc23)C[C@H](C(=O)NCC(C)(C)N)O1 [Example 6, (2R,6R)-N-(2-amino-2-methyl-propyl)-6-methyl-4-[8-(trifluoromethyl)-5-quinolyl]morpholine-2-carboxamide] | 29.8 | -13 | 
14 | C[C@@H]1CN(c2ccc([N+](=O)[O-])c3ncccc23)C[C@H](C(=O)NCC2CN(C)CCO2)O1 (stereo partly drawn) [Example 18, (2R,6R)-6-methyl-N-[(4-methylmorpholin-2-yl)methyl]-4-(8-nitro-5-quinolyl)morpholine-2-carboxamide] | 54.8 | -4 | 
15 | C[C@H]1C[C@@H](N)CN(c2ccc(Cl)c3ncccc23)C1 [Example 23, (3R,5S)-1-(8-chloro-5-quinolyl)-5-methyl-piperidin-3-amine] | 7 | -16 | 
16 | C[C@@H]1CN(c2ccc(C(F)(F)F)c3ncccc23)C[C@H](C(=O)NC2CC3CNCC32)O1 (single isomer, unassigned) [Example 49C] | 7.7 |  | 11
17 | C[C@@H]1CN(c2ccc(C(F)(F)F)c3ncccc23)C[C@H](C(=O)N2CCC3(CCNC3)C2)O1 (some centres unmarked) [Example 36] | 12.3 | 1 | 
18 | CC(NC(=O)[C@H]1CN(c2ccc(C(F)(F)F)c3ncccc23)C[C@@H](C)O1)C1CN(C)CCO1 (single isomer, unassigned) [Example 35B] | 50.2 |  | 6
19 | C[C@@H]1CN(c2ccc(C(F)(F)F)c3ncccc23)C[C@H](C(=O)N2CCC(N)C2)O1 (stereo partly drawn) [Example 10, (3-aminopyrrolidin-1-yl)-[(2R,6R)-6-methyl-4-[8-(trifluoromethyl)-5-quinolyl]morpholin-2-yl]methanone] | 18.4 | 11 | 
